US9695191B2, “Conformationally constrained, fully synthetic macrocyclic compounds” (POLYPHOR AG, priority 2009, dated 2017)
Read-outs that look alike come from different tables or passages of the source.

Tests used:
[1] = Metabolic stability, CD-1 mouse microsomes; assay type: in vitro ADME; settings: 37° C.; for Metabolic Stability 60 min mouse: % of the initial 0 minutes value at 60 min, 10 μM
Description: (§1) Microsomes from a human 50 donor mixed gender pool and 1:1 mixtures of microsomes from CD-1 mouse single-gender pools are purchased from Celsis (Belgium). The enzymatic reaction is performed in a buffer containing an NADPH regeneration system and microsomes with the following end concentrations: 100 mM potassium phosphate buffer (all from Sigma), 1 mg/mL glucose-6-phosphate, 1 mg/mL β-nicotinamide adenine dinucleotide phosphate (NADP), 0.65 mg/mL magnesium chloride, 0.8 units/mL of glucose-6-phosphate dehydrogenase (prediluted with 5 mM citrate buffer), 10 μM compound and 1 mg/ml microsomal protein. Compounds are incubated at 37° C. in duplicates and samples are taken after 0, 20 and 60 minutes. After acetonitrile precipitation (2 volumes) and HPLC/MS/MS analysis metabolic turnover is expressed in % of the initial 0 minutes value and half life T½ (min) is calculated. Verapamil for human and propranolol for mouse are used as reference and are assayed with every experimental set. • F. P. Guengerich, Analysis and Characterization of Enzymes; in: Principles and Methods of Toxicology; A. W. Hayes (Ed.) Raven Press: New York, 1989, 777-813. • R. Singh et al., In vitro metabolism of a potent HIV-protease inhibitor (141W94) using rat, monkey and human liver S9, Rapid Commun. Mass Spectrom. 1996, 10, 1019-1026. 5. Results

[2] = human, 10 μM
Description: (§2) Example compounds were dissolved in DMSO/H2O 90:10 to a final concentration of 10 mM for plasma stability determination and metabolic stability determination.
(§3) Human plasma (3-5 donors, Blutspendedienst SRK, Basel) and CD-1 mouse plasma (mixed gender pool>50 animals, Innovative Research, CA, USA) are both sodium citrate stabilized. The assay is performed in triplicates at 10 μM compound concentration and 37° C. Samples are taken at 0, 15, 60, and 240 minutes and stopped by precipitation with 2 volumes of acetonitrile. The supernatant is collected, evaporated and reconstituted in a 5% acetonitrile solution to be analyzed by HPLC/MS/MS. The resulting peak area counts are expressed in percent of the 0 value and used to determine the endpoint stability in % and the half life T½ in minutes. In order to monitor assay integrity the degradation of propantheline is assayed with every experimental set

[3] = both, CD-1, mouse, 10 μM
Description: as §2, §3

[4] = Metabolic stability, human microsomes; assay type: in vitro ADME; settings: 37° C.; for Metabolic Stability 60 min hum: % of the initial 0 minutes value at 60 min, 10 μM
Description: as §1

[5] = target: T1, 5-hydroxytryptamine 2B (5-HT2B) receptor (Homo sapiens, UniProt P41595); assay: Ca2+ assay (FLIPR), 5-hydroxytryptamine 2B (5-HT2B) receptor, agonist mode (percentage activation); assay type: cell-based
T1 construct: expressed in transfected cells; host or cells: Ca2+ optimized hematopoietic cell lines (rat)
T1 sequence (P41595 whole entry): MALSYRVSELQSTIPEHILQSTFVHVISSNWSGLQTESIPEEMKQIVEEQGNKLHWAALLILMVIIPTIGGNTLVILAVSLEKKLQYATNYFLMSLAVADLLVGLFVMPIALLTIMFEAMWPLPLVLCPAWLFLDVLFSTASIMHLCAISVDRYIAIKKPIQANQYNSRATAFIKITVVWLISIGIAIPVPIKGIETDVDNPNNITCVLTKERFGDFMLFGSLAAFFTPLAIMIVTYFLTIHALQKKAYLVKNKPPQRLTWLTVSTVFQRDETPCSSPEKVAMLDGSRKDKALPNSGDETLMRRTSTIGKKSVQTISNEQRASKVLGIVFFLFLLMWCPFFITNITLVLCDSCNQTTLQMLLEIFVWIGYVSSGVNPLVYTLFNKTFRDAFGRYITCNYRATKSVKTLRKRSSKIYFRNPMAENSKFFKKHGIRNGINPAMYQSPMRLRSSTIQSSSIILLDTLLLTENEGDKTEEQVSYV
Description: Dose dependent agonist and antagonist activities were determined. Percentage activation and percentage inhibition values were determined.
Percentage activation was determined upon initial addition of the sample compounds followed by 10 minutes incubation at 25° C. Following compound incubation, reference agonists were added at EC80 to determine percentage inhibition.
All handling of ligands were done to ensure proper control throughout the experiments.
HBSS was supplemented with 20 mM HEPES (4-(2-hydroxyethyl)-piperazin-1-ethansulfonic acid) and 2.5 mM Probenecid (Sigma P8761).
GPCR assays were performed using Ca^2+ optimized hematopoietic cell lines (rat) with cultures never exceeding 90% confluency. […] After seeding, the assay plates were incubated for forty-five (45) minutes at room temperature. After room temperature incubation, the assay plates were incubated at 37° C. 5% CO2 for 24 hours prior to assaying.
All GPCR assays were performed using Fluo-8 Ca^2+ dye. Ca^2+ dye was prepared at 1× dye concentration in GPCR assay buffer. […] The plates were incubated for 90 minutes at 30° C. 5% CO2 prior to FLIPR assay.
Compound plates were prepared to add 50 μL/well during the agonist assay mode. During the FLIPR assay, 50 μL/well from the compound plate was diluted 3-fold into the existing 100 μL/well from the dye loading step. Therefore all compounds were prepared as 3× the final concentration desired in the assay.
After completion of the first single addition assay run, assay plate was removed from the FLIPR Tetra and placed at 25° C. for seven (7) minutes before antagonist assay.
From the FLIPR data, with negative control correction enabled, the maximum statistic for each well was exported and percentage activation relative to Emax control was calculated.

[6] = Plasma stability, human plasma; settings: endpoint stability in % of the 0 value at 240 min, 10 μM, 37° C.
Description: as §2, §3

[7] = Plasma stability, CD-1 mouse plasma; settings: endpoint stability in % of the 0 value at 240 min, 10 μM, 37° C.
Description: as §2, §3

[8] = 10 μM compound, 1 mg/ml microsomal protein, sampling up to 60 min

CC(=O)N[C@H]1C[C@H]2COc3ccc(F)cc3C(=O)N(C)[C@H](C(=O)NCCc3c[nH]c4ccccc34)CCC(=O)N(C)CC(=O)N2C1 [Ex. 9, (2S,11S,19aS)-2-(acetylamino)-15-fluoro-N-[2-(1H-indol-3-yl)ethyl]-7,12-dimethyl-5,8,13-trioxo-2,3,6,7,8,9,10,11,12,13,19,19a-dodecahydro-1H,5H-pyrrolo[2,1-c][1,4,7,12] benzoxatriazacyclopentadecine-11-carboxamide]
Metabolic Stability 60 min mouse [1]: 80% | Plasma Stability 240 min hum [2]: 99% | Plasma Stability 240 min mouse [3]: 93% | Metabolic Stability 60 min hum [4]: 20% | 5-HT2B receptor agonist activity [% activation at 12.5 μM] [5]: 48%

CN1CC(=O)N2C[C@@H](NC(=O)Cc3c[nH]c4ccccc34)C[C@H]2COc2ccc(F)cc2C(=O)N(C)[C@H](C(=O)NCCc2c[nH]c3ccccc23)CCC1=O [Ex. 12, (2S,11S,19aS)-15-fluoro-2-{[2-(1H-indol-3-yl)acetyl]amino}-N-[2-(1H-indol-3-yl)ethyl]-7,12-dimethyl-5,8,13-trioxo-2,3,6,7,8,9,10,11,12,13,19,19a-dodecahydro-1H,5H-pyrrolo [2,1-c][1,4,7,12]benzoxatriazacyclopentadecine-11-carboxamide]
Metabolic Stability 60 min mouse [1]: 33% | Plasma Stability 240 min hum [2]: 99% | Plasma Stability 240 min mouse [3]: 100% | Metabolic Stability 60 min hum [4]: 7% | 5-HT2B receptor agonist activity [% activation at 12.5 μM] [5]: 36%

CN(C)CC(=O)N[C@H]1C[C@H]2COc3ccc(F)cc3C(=O)N(C)[C@H](C(=O)NCCc3c[nH]c4ccccc34)CCC(=O)N(C)CC(=O)N2C1 [Ex. 16, (2S,11S,19aS)-2-{[2-(dimethylamino)acetyl]amino}-15-fluoro-N-[2-(1H-indol-3-yl)ethyl]-7,12-dimethyl-5,8,13-trioxo-2,3,6,7,8,9,10,11,12,13,19,19a-dodecahydro-1H,5H-pyrrolo [2,1-c][1,4,7,12]benzoxatriazacyclopentadecine-11-carboxamide]
Metabolic Stability 60 min mouse [1]: 79% | Plasma Stability 240 min hum [2]: 95% | Plasma Stability 240 min mouse [3]: 97% | Metabolic Stability 60 min hum [4]: 31% | 5-HT2B receptor agonist activity [% activation at 12.5 μM] [5]: 45%

CN1CC(=O)N2C[C@@H](NC(=O)OC(C)(C)C)C[C@H]2COc2ccc(F)cc2C(=O)N(C)[C@H](C(=O)NCCc2c[nH]c3ccccc23)CCC1=O [Ex. 30, tert-butyl N-[(2S,11S,19aS)-15-fluoro-11-({[2-(1H-indol-3-yl)ethyl]amino}carbonyl)-7,12-dimethyl-5,8,13-trioxo-2,3,6,7,8,9,10,11,12,13,19,19a-dodecahydro-1H,5H-pyrrolo[2,1-c][1,4,7,12]benzoxatriazacyclopentadecin-2-yl]carbamate]
Metabolic Stability 60 min mouse [1]: 55% | Plasma Stability 240 min hum [2]: 85% | Plasma Stability 240 min mouse [3]: 100% | Metabolic Stability 60 min hum [4]: 2% | 5-HT2B receptor agonist activity [% activation at 12.5 μM] [5]: 48%

CCCCC(=O)N[C@H]1C[C@H]2COc3ccc(F)cc3C(=O)N(C)[C@@H](C(=O)NCc3ccc4ccccc4c3)CCC(=O)N(C)CC(=O)N2C1 [Ex. 103, (2S,115,19aS)-15-fluoro-7,12-dimethyl-N-(2-naphthylmethyl)-5,8,13-trioxo-2-(pentanoylamino)-2,3,6,7,8,9,10,11,12,13,19,19a-dodecahydro-1H,5H-pyrrolo[2,1-c][1,4,7,12] benzoxatriazacyclopentadecine-11-carboxamide]
Plasma Stability 240 min hum [6]: 97% | Metabolic Stability T ½ [min] mouse [1, 8]: 36 min | Metabolic Stability 60 min mouse [1]: 25% | Metabolic Stability T ½ [min] hum [4, 8]: 35 min | Metabolic Stability 60 min hum [4]: 22% | Plasma Stability 240 min mouse [7]: 75%
